Reference: patent US7271164B2, “Cyclohepta[b][1,4]diazepino[6,7,1,-hi]indoles and derivatives” (Wyeth, priority 2000, dated 2007)
Structures can show the parent of a compound that is named as a salt.

What was measured:
[1] = biological target: T1, human 5-hydroxytryptamine2C (h5HT2C) receptor (Homo sapiens, UniProt P28335); assay: 5HT2C Receptor Binding Test Procedure ([125I] DOI displacement, CHO cell membranes)
T1 construct: expressed in transfected cells; host or cells: CHO (Chinese Hamster Ovary) cells; membrane preparation
T1 sequence (P28335 33-458): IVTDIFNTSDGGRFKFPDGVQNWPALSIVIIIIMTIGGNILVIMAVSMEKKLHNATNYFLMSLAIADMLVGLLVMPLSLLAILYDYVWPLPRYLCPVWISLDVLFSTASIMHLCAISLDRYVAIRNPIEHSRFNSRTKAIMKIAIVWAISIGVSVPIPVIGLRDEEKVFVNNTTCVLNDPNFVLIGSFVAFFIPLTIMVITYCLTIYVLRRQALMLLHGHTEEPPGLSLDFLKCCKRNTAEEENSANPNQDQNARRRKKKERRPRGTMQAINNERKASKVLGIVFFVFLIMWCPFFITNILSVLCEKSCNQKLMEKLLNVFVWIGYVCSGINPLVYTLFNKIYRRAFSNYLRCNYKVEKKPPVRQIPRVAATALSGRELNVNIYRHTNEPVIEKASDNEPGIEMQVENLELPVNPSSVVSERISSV

human 5-HT2C receptor = biological target: T2, human 5-HT2C receptor (Homo sapiens, UniProt P28335); assay: Stimulation of [3H] Inositol Monophosphate Production by 5-HT2C Agonists (transfected CHO cells); assay type: cell-based
T2 construct: expressed in transfected cells; host or cells: CHO cells
T2 sequence (P28335 33-458): T1 sequence (P28335 33-458)
Method: One (1) ml of maintenance medium containing 1 μCi/ml myo-[^3H] inositol was added to each well. After 48 hours labeling, the cells were washed once with 0.5 ml DMEM containing 25 mM HEPES and 10 mM LiCl, then preincubated with the medium for 30 min (antagonists were included in this period if tested). At the end of the preincubation, the medium was removed, the cells were then incubated with test compounds (in presence of antagonists if needed) for 30 min. The reaction was terminated by removal of the incubation solution and addition of 0.5 ml ice-cold 5% PCA, followed by 15 to 30 min incubation on ice. 200 μl of 0.5 M Tes/1.5 M K2CO3 was added to each well to neutralize to pH 7, and plates were left on ice for another 15 to 30 min to precipitate all salts. The liquid and solid phases were separated by centrifugation.
A portion (350 μl) of the upper aqueous phase was applied to Dowex AG-1X8 (formate form, 100-200 mesh) columns. The columns were then washed stepwise with 10 ml of water and 10 ml of 25 mM ammonium formate to remove free myo-[^3H]inositol and deacylated phosphoinositol, respectively. Finally 10 ml of 0.2 M ammonium formate solution was applied to the columns to elute [^3H] inositol monophosphate ([^3H] IP1) directly into scintillation vials. Of this eluate, 1 ml was used to determine radioactivity by scintillation counting. […]

For `c1cc2c3c(c1)c1c(n3CCNC2)CCCCC1` (as salt: hydrochloride) [Example 1, 1,2,3,4,9,10,11,12-Octahydro-8H-cyclohepta[b][1,4]diazepino[6,7,1-hi]indole], the melting point was 303 to 306 °C.

`COc1cc(CC(C)N)c(OC)cc1I` (stereo not drawn) [[^125I] DOI] showed a Kd ([1]; read-out: dissociation constant, KD of [125I] DOI at the human serotonin 5HT2C receptor, saturation binding with increasing concentrations of [125I] DOI) of 0.4 nM.

`CSc1ccc2c(c1)C(N1CCN(C)CC1)Cc1ccccc1S2` (stereo not drawn) [Methiothepin] showed a Ki ([1]; reference compounds, [125I] DOI binding, h5HT2C in CHO membranes, read-out: Ki value and 95% confidence interval) of 4.6 nM.

With `c1cc2c3c(c1)c1c(n3CCNC2)CCCCC1` [Example 1, 1,2,3,4,9,10,11,12-Octahydro-8H-cyclohepta[b][1,4]diazepino[6,7,1-hi]indole] the Emax (human 5-HT2C receptor; CHO, read-out: 5HT2C % Emax (5HT, 100%)) was 73% and the EC50 (human 5-HT2C receptor; read-out: Stimulation of IP3 (EC50)) was 500 nM.

In the case of `c1cc2c3c(c1)C1CCCCCC1N3CCNC2` (stereo not drawn) (as salt: hydrochloride) [Example 2, 1,2,3,4,8,9,10,11,12,12a-Decahydro-7bH-cyclohepta[b][1,4]diazepino[6,7,1-hi]indole], the melting point is reported as 258 to 263 °C.
